Reference: patent US20040234610A1, “Medical device and method for inhalation of aerosolized drug with heliox” (priority 2001, published 2004)
Where “and” joins values, the source holds several entries; their conditions need not be identical. Equal values may be shown once.

Assay: Nebulized particle size distribution by Anderson Cascade Impactor, RES-Q-Neb (T and Y design) vs HOPE nebulizer
Format: physicochemical
Experimental: A study was conducted to compare the performance of two embodiments of the heliox nebulization system described herein (called the RES-Q-Neb™ Nebulizer) with a commercially available nebulizer (HOPE™, B&B Medical Technologies, Inc., Orangevale, Calif., USA) that is driven by air.
Measurements were done using an Anderson Cascade Impactor (ACI) operated at an air flow rate of 28.3 L/min. The nebulizers were connected one at a time to the same tee piece and collar. The ACI consisted of eight stages, a backup filter, and an inlet (USP throat).
Gas flows through the nebulizers and impactor were controlled with rotameters, which were set with the DryCal Flow Calubrator (BIOS International Co., Pomton Plains, N.J.).
Heliox (80% helium, 20% oxygen) at 18 L/min was used to drive the RES-Q-Neb Nebulizer and another 18 L/min of the heliox was introduced into the system at the reservoir bag side port. […] The HOPE nebulizer was driven with compressed air at 10 L/min (as directed in its included label and instructions), and 18 L/min of heliox was introduced into the system at a side port, as shown in FIG. 10.
A pre-running time was used for each test to stabilize the generation of aerosol. The RES-Q-Neb nebulizer was pre-run for 15 s, and the HOPE nebulizer was pre-run for 30 s. Six tests were run with the RES-Q-Neb nebulizer at the same conditions (3 with the “Y” adaptor and 3 with the “T” adaptor) and five tests were run with the HOPE nebulizer at the same conditions.
After each test, the ACI and empty nebulizers were disassembled and washed with deionized water. The wash water was collected and the amount of drug remaining or collected was determined using spectrophotometric analysis at 224 nm.
The particle sizes are expressed as 50% mass median aerodynamic diameters (MMAD).

[1] = HOPE nebulizer, compressed air 10 L/min nebulizer + heliox 18 L/min side port
[2] = HOPE nebulizer, compressed air 10 L/min nebulizer + heliox 18 L/min side port, mean of 5 tests
[3] = HOPE nebulizer, compressed air 10 L/min nebulizer + heliox 18 L/min side port, single tests, listed as Albuterol sulfate
[4] = RES-Q-Neb T design, heliox 18 L/min nebulizer + 18 L/min side port
[5] = RES-Q-Neb T design, heliox 18 L/min nebulizer + 18 L/min side port, mean of 3 tests
[6] = RES-Q-Neb T design, heliox 18 L/min nebulizer + 18 L/min side port, single tests, listed as Albuterol sulfate
[7] = RES-Q-Neb Y design, heliox 18 L/min nebulizer + 18 L/min side port (18-18 lpm)
[8] = RES-Q-Neb Y design, heliox 18 L/min nebulizer + 18 L/min side port, mean of 3 tests
[9] = RES-Q-Neb Y design, heliox 18 L/min nebulizer + 18 L/min side port, single tests, listed as Albuterol sulfate

CC(C)(C)NCC(O)c1ccc(O)c(CO)c1 (stereo not shown) [albuterol]
0.7 ≦ Mean Fraction < 5.8 μm [1]: 0.503 | Mean Fraction < 0.7 μm [1]: 0.052 | Mean Fraction at Midpoint = 1.52 μm [1]: 0.227 | Mean Fraction ≧ 5.8 μm [1]: 0.446 | Mean Fraction, Collar [2]: 0.009 | Mean Fraction, Filter (cut-size <0.4 micron) [2]: 0.015 | Mean Fraction, Stage 0 (cut-size 9 micron) [2]: 0.110 | Mean Fraction, Stage 1 (cut-size 5.8 micron) [2]: 0.151 | Mean Fraction, Stage 2 (cut-size 4.7 micron) [2]: 0.044 | Mean Fraction, Stage 3 (cut-size 3.3 micron) [2]: 0.099 | Mean Fraction, Stage 4 (cut-size 2.1 micron) [2]: 0.119 | Mean Fraction, Stage 5 (cut-size 1.1 micron) [2]: 0.227 | Mean Fraction, Stage 6 (cut-size 0.7 micron) [2]: 0.014 | Mean Fraction, Stage 7 (cut-size 0.4 micron) [2]: 0.037 | Mean Fraction, Tee Piece [2]: 0.060 | Mean Fraction, Throat (cut-size >9 micron) [2]: 0.034 | Mean Fraction, Tube [2]: 0.082 | Fraction, Stage 1 (cut-size 5.8 micron) [3]: 0.139 and 0.164 and 0.154 and 0.138 and 0.160 | Fraction, Stage 2 (cut-size 4.7 micron) [3]: 0.039 and 0.047 and 0.044 and 0.045 | Fraction, Stage 3 (cut-size 3.3 micron) [3]: 0.088 and 0.110 and 0.109 and 0.090 and 0.099 | Fraction, Tee Piece [3]: 0.066 and 0.056 and 0.058 and 0.052 and 0.069 | Fraction, Throat (cut-size >9 micron) [3]: 0.033 and 0.037 and 0.036 and 0.030 and 0.035 | Fraction, Tube [3]: 0.105 and 0.077 and 0.073 and 0.081 and 0.074 | 0.7 ≦ Mean Fraction < 5.8 μm [4]: 0.697 | Mean Fraction < 0.7 μm [4]: 0.218 | Mean Fraction at Midpoint = 1.52 μm [4]: 0.519 | Mean Fraction ≧ 5.8 μm [4]: 0.086 | mean output rate [4]: 0.54 mL/min | Mean Fraction, Adapter [5]: 0.033 | Mean Fraction, Collar [5]: 0.008 | Mean Fraction, Filter (cut-size <0.4 micron) [5]: 0.044 | Mean Fraction, Stage 0 (cut-size 9 micron) [5]: 0.010 | Mean Fraction, Stage 1 (cut-size 5.8 micron) [5]: 0.015 | Mean Fraction, Stage 2 (cut-size 4.7 micron) [5]: 0.005 | Mean Fraction, Stage 3 (cut-size 3.3 micron) [5]: 0.009 | Mean Fraction, Stage 4 (cut-size 2.1 micron) [5]: 0.061 | Mean Fraction, Stage 5 (cut-size 1.1 micron) [5]: 0.519 | Mean Fraction, Stage 6 (cut-size 0.7 micron) [5]: 0.103 | Mean Fraction, Stage 7 (cut-size 0.4 micron) [5]: 0.174 | Mean Fraction, T-Piece [5]: 0.017 | Mean Fraction, Throat (cut-size >9 micron) [5]: 0.003 | Fraction, Filter (cut-size <0.4 micron) [6]: 0.037 and 0.049 and 0.045 | Fraction, Stage 7 (cut-size 0.4 micron) [6]: 0.148 and 0.166 and 0.207 | mean output rate (RES-Q-Neb Y design, heliox 18 L/min nebulizer + 18 L/min side port): 0.59 mL/min | 0.7 ≦ Mean Fraction < 5.8 μm [7]: 0.657 | Mean Fraction < 0.7 μm [7]: 0.239 | Mean Fraction at Midpoint = 1.52 μm [7]: 0.422 | Mean Fraction ≧ 5.8 μm [7]: 0.105 | Mean Fraction, Adapter [8]: 0.040 | Mean Fraction, Collar [8]: 0.009 | Mean Fraction, Filter (cut-size <0.4 micron) [8]: 0.053 | Mean Fraction, Stage 0 (cut-size 9 micron) [8]: 0.012 | Mean Fraction, Stage 1 (cut-size 5.8 micron) [8]: 0.019 | Mean Fraction, Stage 2 (cut-size 4.7 micron) [8]: 0.007 | Mean Fraction, Stage 3 (cut-size 3.3 micron) [8]: 0.010 | Mean Fraction, Stage 4 (cut-size 2.1 micron) [8]: 0.072 | Mean Fraction, Stage 5 (cut-size 1.1 micron) [8]: 0.422 | Mean Fraction, Stage 6 (cut-size 0.7 micron) [8]: 0.146 | Mean Fraction, Stage 7 (cut-size 0.4 micron) [8]: 0.186 | Mean Fraction, Throat (cut-size >9 micron) [8]: 0.004 | Mean Fraction, Y-Piece [8]: 0.021 | Fraction, Filter (cut-size <0.4 micron) [9]: 0.056 and 0.060 and 0.043 | Fraction, Stage 1 (cut-size 5.8 micron) [9]: 0.014 and 0.023 and 0.020 | Fraction, Stage 6 (cut-size 0.7 micron) [9]: 0.148 and 0.144 | Fraction, Stage 7 (cut-size 0.4 micron) [9]: 0.169 and 0.180 and 0.208 | Fraction, Y-Piece [9]: 0.026 and 0.022 and 0.015 | less particles >5.8 μm, present device/method vs HOPE nebulizer (less than HOPE): approximately 34% | greater fraction of particles ≥0.7 and <5.8 μm (breathable range), present device/method vs HOPE nebulizer (more than HOPE): approximately 20% | more particles <0.7 μm, present device/method vs HOPE nebulizer (more than HOPE): about 15% | more particles with a midpoint diameter of 1.52 μm, present device/method vs HOPE nebulizer (more than HOPE): approximately 22%
